Data as given in the supplement of paper PMC4380931.

What was measured:
Assay in all cases: apoptotic fraction of cells (caspase-3 NucView488 positive); higher = more apoptosis
WM115 = test system: WM115
Method: (§1)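 BRAF V600E/D melanoma cell lines were seeded in 96-well plates, treated in 4 replicates with seven doses (3.16 nM to 3.16 uM) of RAF/MEK inhibitors for 24, 48 or 72 h, and stained with Hoechst 33342 (nuclei) and DEVD-NucView488 caspase-3 substrate. Plates were imaged on an Operetta. Relative viability is the cell count normalised to a DMSO-treated control; apoptosis fraction is the fraction of NucView488-positive nuclei.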

C32 = test system: C32
Method: as §1

MMACSF = test system: MMACSF
Method: as §1

SKMEL28 = test system: SKMEL28
Method: as §1

K2 = test system: K2
Method: as §1

MZ7MEL = test system: MZ7MEL
Method: as §1

CN(C)CCOc1ccc(-c2nc(-c3ccncc3)c(-c3ccc4c(c3)CC/C4=N\O)[nH]2)cc1
apoptotic fraction of cells
Conditions	0.00316 µM	0.01 µM	0.0316 µM	0.1 µM	0.316 µM	1 µM	3.16 µM
C32, 24 h	0.0901	0.138	0.159	0.194	0.225	0.24	0.271
C32, 48 h	0.0832	0.121	0.0893	0.077	0.189	0.38	0.524
C32, 72 h	0.0657	0.0532	0.0299	0.0807	0.274	0.474	0.542
K2, 24 h	0.00595	0.00244	0.00221	0.00264	0.0035	0.0129	0.0372
K2, 48 h	0.00193	0.00284	0.00174	0.00423	0.00888	0.0309	0.0801
MMACSF, 24 h	0.0448	0.0421	0.0446	0.0491	0.0475	0.048	0.0414
MMACSF, 48 h	0.0482	0.0408	0.041	0.0486	0.0567	0.0889	0.0951
MMACSF, 72 h	0.0417	0.0427	0.0345	0.0358	0.0666	0.155	0.224
MZ7MEL, 24 h	0.0126	0.0117	0.0102	0.0118	0.0151	0.0236	0.0357
MZ7MEL, 48 h	0.0138	0.019	0.0145	0.0141	0.0253	0.0408	0.0727
MZ7MEL, 72 h	0.017	0.0127	0.0173	0.0271	0.0568	0.0967	0.143
SKMEL28, 48 h	0.0386	0.034	0.0305	0.0338	0.042	0.0432	0.0466
SKMEL28, 72 h	0.0377	0.0332	0.0271	0.0305	0.0316	0.0381	0.259
WM115, 24 h	0.0434	0.0337	0.0512	0.0473	0.0461	0.0874	0.0958
WM115, 48 h	0.047	0.0376	0.0402	0.0491	0.0688	0.101	0.131
WM115, 72 h	0.0298	0.031	0.0346	0.0452	0.0689	0.144	0.158

CCCS(=O)(=O)Nc1ccc(F)c(C(=O)c2c[nH]c3ncc(Cl)cc23)c1F [PLX4720]
apoptotic fraction of cells
Conditions	0.00316 µM	0.01 µM	0.0316 µM	0.1 µM	0.316 µM	1 µM	3.16 µM
C32, 24 h	0.0873	0.121	0.119	0.153	0.174	0.245	0.29
C32, 48 h	0.0967	0.159	0.158	0.105	0.143	0.465	0.784
C32, 72 h	0.0846	0.0849	0.0684	0.0354	0.215	0.619	0.813
K2, 24 h	0.00502	0.00388	0.00353	0.00321	0.00817	0.0503	0.153
K2, 48 h	0.00236	0.00224	0.00201	0.00525	0.0166	0.0858	0.173
MMACSF, 24 h	0.0449	0.0443	0.0397	0.0422	0.0417	0.0492	0.0464
MMACSF, 48 h	0.0462	0.0457	0.0434	0.0443	0.0469	0.0555	0.0933
MMACSF, 72 h	0.0394	0.0424	0.0386	0.0346	0.0549	0.218	0.534
MZ7MEL, 24 h	0.013	0.0082	0.01	0.00501	0.00918	0.0127	0.0325
MZ7MEL, 48 h	0.0158	0.0193	0.0129	0.0113	0.0205	0.0277	0.0483
MZ7MEL, 72 h	0.0184	0.0171	0.0142	0.0198	0.0439	0.105	0.151
SKMEL28, 48 h	0.0324	0.0306	0.0349	0.035	0.0365	0.0401	0.0568
SKMEL28, 72 h	0.0401	0.0409	0.0321	0.0301	0.0373	0.0372	0.105
WM115, 24 h	0.0488	0.0373	0.0513	0.0369	0.0371	0.0643	0.0673
WM115, 48 h	0.0421	0.0454	0.0356	0.0312	0.0333	0.0466	0.122
WM115, 72 h	0.0312	0.0316	0.0268	0.0303	0.0415	0.129	0.381

CCCS(=O)(=O)Nc1ccc(F)c(C(=O)c2c[nH]c3ncc(-c4ccc(Cl)cc4)cc23)c1F [Vemurafenib]
apoptotic fraction of cells
Conditions	0.00316 µM	0.01 µM	0.0316 µM	0.1 µM	0.316 µM	1 µM	3.16 µM
C32, 24 h	0.0798	0.139	0.166	0.186	0.202	0.17	0.309
C32, 48 h	0.11	0.173	0.186	0.127	0.0971	0.407	0.862
C32, 72 h	0.0761	0.0907	0.0843	0.061	0.114	0.658	0.928
K2, 24 h	0.00416	0.00233	0.00265	0.00174	0.00473	0.0444	0.183
K2, 48 h	0.00306	0.00257	0.00173	0.00229	0.0116	0.0823	0.237
MMACSF, 24 h	0.0413	0.0384	0.0409	0.0412	0.0459	0.0484	0.0553
MMACSF, 48 h	0.0481	0.0447	0.0414	0.0439	0.0499	0.0573	0.122
MMACSF, 72 h	0.0401	0.0441	0.0407	0.0382	0.0493	0.265	0.692
MZ7MEL, 24 h	0.0137	0.0131	0.00722	0.00978	0.0118	0.0206	0.0379
MZ7MEL, 48 h	0.0184	0.0167	0.0196	0.0148	0.0203	0.0385	0.0682
MZ7MEL, 72 h	0.0218	0.0158	0.0159	0.0167	0.0378	0.103	0.193
SKMEL28, 48 h	0.0412	0.0316	0.0337	0.0359	0.0364	0.038	0.0538
SKMEL28, 72 h	0.0393	0.0398	0.0297	0.0272	0.0276	0.0399	0.147
WM115, 24 h	0.0555	0.0451	0.0561	0.0385	0.0444	0.0572	0.0792
WM115, 48 h	0.0621	0.0504	0.0424	0.0407	0.0303	0.045	0.116
WM115, 72 h	0.0323	0.0325	0.0317	0.0278	0.0361	0.125	0.407

Cn1cnc2c(F)c(Nc3ccc(Br)cc3Cl)c(C(=O)NOCCO)cc21 [Selumetinib]
apoptotic fraction of cells
Conditions	0.00316 µM	0.01 µM	0.0316 µM	0.1 µM	0.316 µM	1 µM	3.16 µM
C32, 24 h	0.0878	0.113	0.144	0.213	0.215	0.236	0.272
C32, 48 h	0.0773	0.0963	0.0636	0.107	0.262	0.598	0.83
C32, 72 h	0.103	0.0822	0.0406	0.108	0.403	0.759	0.862
K2, 24 h	0.00506	0.00321	0.00454	0.0128	0.0266	0.123	0.142
K2, 48 h	0.0027	0.00331	0.0058	0.0372	0.0691	0.199	0.332
MMACSF, 24 h	0.0508	0.0478	0.0349	0.0436	0.0526	0.0569	0.0615
MMACSF, 48 h	0.0481	0.039	0.0469	0.0518	0.0667	0.14	0.232
MMACSF, 72 h	0.0392	0.0379	0.0318	0.0807	0.193	0.434	0.617
MZ7MEL, 24 h	0.0105	0.0133	0.0129	0.013	0.021	0.03	0.0358
MZ7MEL, 48 h	0.02	0.0157	0.0142	0.0195	0.0385	0.0514	0.0696
MZ7MEL, 72 h	0.0201	0.0173	0.0366	0.108	0.158	0.239	0.314
SKMEL28, 48 h	0.0348	0.0333	0.0343	0.0355	0.0422	0.0573	0.0991
SKMEL28, 72 h	0.036	0.0338	0.0305	0.037	0.0563	0.111	0.214
WM115, 24 h	0.0496	0.0509	0.0515	0.0423	0.0578	0.102	0.143
WM115, 48 h	0.0459	0.0343	0.0345	0.0394	0.072	0.186	0.269
WM115, 72 h	0.0278	0.027	0.0324	0.0559	0.115	0.302	0.456

Cc1ccc(NC(=O)c2cccc(C(C)(C)C#N)c2)cc1Nc1ccc2ncn(C)c(=O)c2c1 [AZ628]
apoptotic fraction of cells
Conditions	0.00316 µM	0.01 µM	0.0316 µM	0.1 µM	0.316 µM	1 µM	3.16 µM
C32, 24 h	0.0886	0.128	0.177	0.226	0.28	0.338	0.24
C32, 48 h	0.0865	0.103	0.0851	0.213	0.509	0.847	0.9051
C32, 72 h	0.0829	0.0581	0.0379	0.301	0.676	0.886	0.941
K2, 24 h	0.00396	0.003	0.00276	0.00598	0.0287	0.117	0.135
K2, 48 h	0.00258	0.00301	0.00475	0.0219	0.0649	0.254	0.358
MMACSF, 24 h	0.0452	0.0505	0.0425	0.0308	0.0456	0.0524	0.0606
MMACSF, 48 h	0.0483	0.0434	0.0445	0.0497	0.0653	0.159	0.25
MMACSF, 72 h	0.0431	0.0411	0.0335	0.083	0.226	0.465	0.62
MZ7MEL, 24 h	0.0132	0.0129	0.0104	0.00814	0.0204	0.032	0.0453
MZ7MEL, 48 h	0.0137	0.0171	0.0173	0.0263	0.0421	0.0561	0.0749
MZ7MEL, 72 h	0.0208	0.0145	0.0428	0.156	0.236	0.265	0.293
SKMEL28, 48 h	0.04	0.0326	0.032	0.0352	0.0404	0.063	0.09
SKMEL28, 72 h	0.0319	0.028	0.0262	0.0319	0.0526	0.107	0.142
WM115, 24 h	0.0464	0.0415	0.0535	0.0496	0.0725	0.135	0.202
WM115, 48 h	0.0302	0.0498	0.0357	0.0517	0.139	0.311	0.379
WM115, 72 h	0.0295	0.0285	0.0418	0.159	0.419	0.644	0.82
